“Also recorded” adds a separate entry of the source. Like-named read-outs stand apart in the source and are kept apart here.

Experimental findings from publication PMC6906394, “Radiomodifying action, Pharmacokinetic and Biodistribution of Ethyl 3, 4, 5-trihydroxybenzoate-Implication in development of radiomitigator” (Scientific Reports, 2019) are described below.

Format in all cases: in vivo, mice
The subject of data set [1] is NF-kB. Kind of data set: Quantification of NF-kB in liver and kidney by indirect ELISA. The note with it: GAE 200 mg/kg oral 15 min after 5 Gy whole body irradiation, p < 0.05, upto 8 h. On the procedure:
Black C57BL/6 male mice weighing 28–30 g were maintained at the Institutional Animal Experimental Facility. Animals were fed according to standard chow diet having free access to food and water ad libitum. The environmental condition was maintained at room temperature (22 ± 2 °C), relative humidity (45–60%) and 12 h dark/light cycle controlled facility. In this study, mice were randomly assigned to four different groups (n = 21) i.e untreated control (UC), GAE-treated (GAE), Radiation + GAE (R + GAE), Radiation group (R). Mice fasted overnight with free access to water before being dosed. Isolated GAE from leaves was dissolved with distilled water and ethanol in (7:3 v/v) and administered orally at a dose of 200 mg/kg body weight to GAE-treated and R + GAE treated groups only. […]
Measurement of NF-kB activity was done in accordance to the manufacturer’s protocol purchased from BD-biosciences. […] After development of colour 50 µl of stop solution was added to the wells and absorbance was recorded at 490 nm. A standard curve was prepared from the data produced from the serial dilution of the pure NF-kB proteins with concentration on the x-axis (log scale) vs absorbance on the Y-axis (linear).
(In general: ELISA stands for enzyme-linked immunosorbent assay.)

The test system of data set [2] is NF-kB. The data set can be described thus: Immunofluorescent staining of NF-kB expression in liver and kidney sections. The note with it: R + GAE group, compared to irradiated group. The method, then:
(§1) Black C57BL/6 male mice weighing 28–30 g were maintained at the Institutional Animal Experimental Facility. Animals were fed according to standard chow diet having free access to food and water ad libitum. The environmental condition was maintained at room temperature (22 ± 2 °C), relative humidity (45–60%) and 12 h dark/light cycle controlled facility. In this study, mice were randomly assigned to four different groups (n = 21) i.e untreated control (UC), GAE-treated (GAE), Radiation + GAE (R + GAE), Radiation group (R). Mice fasted overnight with free access to water before being dosed. Isolated GAE from leaves was dissolved with distilled water and ethanol in (7:3 v/v) and administered orally at a dose of 200 mg/kg body weight to GAE-treated and R + GAE treated groups only. The experiment was carried out in accordance to regulation and guideline of the, Committee for the purpose of control and supervision of Experiments on animals (CPCSEA), and study was approved by Institutional Animal Experimental Committee (IAEC), Institute of Nuclear Medicine & Allied Science, Delhi, India.
Group I untreated control (UC), Group II GAE-treated (GAE), Group III Radiation + GAE (R + GAE) and Group IV Radiation (R) exposed. The GAE was administered orally 15 min post irradiation. […]

A short description of data set [3]: Biodistribution of GAE in liver, kidney, heart, spleen and brain after oral administration. The method, then: The Biodistribution in mice at 15 min, 30 min, 1 h, 2 h, 4 h, 8 h and 24 h after GAE administration are presented in (Fig. 2A,B). […] Moreover; no GAE peak was identified in untreated control and irradiated animals. In the GAE treated group the concentration of GAE is highest in the liver 3383.1 ± 137.79 ng/g at 1 h, 529.13 ± 102.8 ng/g in the kidney at 2 h and 283.1 ± 20.60 ng/g in the brain at 1 h after GAE administration. […] After 2 h of GAE administration its concentration decreased GAE was found in heart, spleen, and kidney up to 4 h, whereas in brain it found in low concentration up to 2 h.
as §1
Group I untreated control (UC), Group II GAE-treated (GAE), Group III Radiation + GAE (R + GAE) and Group IV Radiation (R) exposed. The GAE was administered orally 15 min post irradiation. The whole-body radiation (5 Gy) was carried out using Bhabahtron II, Telecobalt machine, Panacea medical technology, Bangalore. The mice exposed at a dose rate of 0.961 Gy/min at field 35 × 35 cm^2 and the distance maintained from the source was 80 cm.
Blood and tissues samples of mice were collected at 15 min, 30 min, 1 h, 2 h, 4 h, 8 h and 24 h after GAE administration (3mice per time). Blood was obtained from retro orbital plexus of mice and collected in heparinized eppendorf tubes, followed by centrifugation at 2500 g for 15 min. The resulting plasma layer was separated and stored in tubes at −20 °C for further analysis. Tissue samples (brain, heart, liver, kidney, and spleen) were weighed and put into the normal saline solution to remove the blood by blotting on filter paper and were minced and homogenized with physiological saline solution (1:2 w/v) thoroughly in an ice bath. The homogenates were stored at −80 °C until the analysis.
For the extraction from tissue, each aliquot (300 µL) of homogenate (liver, kidney, brain, heart & spleen) was spiked with 20 µL of the IS working solution (100 ng/mL) during analysis; homogenate was dispensed in a standing vial containing 400 µL ACN to precipitate proteins. The biological samples were swirled for 3 min and were centrifuged at 12000 rpm for 10 min at 4 °C. The obtained supernatant was tubed and dried under a stream of nitrogen at 40 °C, the sample was reconstituted with mobile phase, then and 20 µL was injected into the HPLC system.
GAE was separated on the high-performance liquid chromatography (HPLC), SPD-10A consisting of binary HPLC pump, ultraviolet detector, and a Rheodyne manual injector equipped with a 20 µl loop (Shimadzu, Japan). Separation was achieved on Kinetex Biphenyl RP 100 Å column (2.6 µm, 150 × 4.6 mm) (Phenomenex, Torrance) installed with phenyl cartridges (Phenomenex, Torrance). The system was controlled using class VP software (Shimadzu, Japan). […]

The mark [4] stands for this setting: R + GAE treated group (5 Gy), 200 mg/kg b.wt oral.
[5] abbreviates: after GAE administration, 200 mg/kg b.wt oral.

As for `CCOC(=O)c1cc(O)c(O)c(O)c1` [GAE, Ethyl 3,4,5-trihydroxybenzoate], in the data set with NF-kB [1], the “NF-kB level/expression in liver and kidney compared to irradiated mice” value is “inhibits NF-kB expression; also recorded: significant minimal expression; also recorded: significantly inhibits; also recorded: significantly reduces”. For the same compound, the “NF-kB positive fluorescence expression” value in the data set on NF-kB [2] is listed as “not strong; also recorded: not positive”. Also, the “crossing of the blood-brain barrier” value in data set [3] (GAE detected in brain in both GAE and R + GAE treated groups) is recorded as “crosses the blood-brain barrier; also recorded: could cross the blood-brain barrier”. The “concentration of GAE (liver, tissue implied by context)” value in data set [3] (setting [4]) amounted to 1928.5 ± 39.63 ng/g. In addition, the “kidney concentration of GAE” value in data set [3] (setting [4]) came to 307.77 ± 7.80 ng/g. Besides, in data set [3] (setting [5]), the “time up to which GAE was found in brain (low concentration)” value is recorded as “up to 2 h”. For the same compound, the “time up to which GAE was found in heart, spleen and kidney” value in data set [3] (setting [5]) was “up to 4 h”. Further, in data set [3] (biodistribution, 200 mg/kg b.wt oral), the “tissues with the highest concentration” value is “liver and kidney”. In addition, in data set [3] (both GAE treated and R + GAE treated groups), the “peak GAE concentration in liver relative to other tissues” value is reported as “two fold higher”. Also, the concentration at 1 h turned out to be 283 ± 20.6 ng/g in data set [3] (male, C57BL/6, mouse, brain, po, 200 mg/kg, GAE treated group, 200 mg/kg b.wt oral, read-out: concentration of GAE in the brain); 216 ng/g in data set [3] (male, C57BL/6, mouse, heart, po, 200 mg/kg, GAE treated animals, 200 mg/kg b.wt oral, read-out: GAE concentration in the heart); 506 ± 39.4 ng/g in data set [3] (male, C57BL/6, mouse, heart, po, 200 mg/kg, R + GAE group (5 Gy), 200 mg/kg b.wt oral, read-out: GAE concentration in the heart); 3380 ± 138 ng/g in data set [3] (male, C57BL/6, mouse, liver, po, 200 mg/kg, GAE treated group, 200 mg/kg b.wt oral, read-out: concentration of GAE in the liver); 484 ng/g in data set [3] (male, C57BL/6, mouse, spleen, po, 200 mg/kg, GAE treated animals, 200 mg/kg b.wt oral, read-out: GAE concentration in the spleen); 522 ± 73.2 ng/g in data set [3] (male, C57BL/6, mouse, spleen, po, 200 mg/kg, R + GAE group (5 Gy), 200 mg/kg b.wt oral, read-out: GAE concentration in the spleen). In addition, the concentration at 2 h in data set [3] (male, C57BL/6, mouse, kidney, po, 200 mg/kg, GAE treated group, 2 h, 200 mg/kg b.wt oral) turned out to be 529 ± 103 ng/g.
